Key:
[1] = test system: lean mice; test: Oral and subcutaneous fumagillin in lean mice (Examples 3 and 4); type: in vivo, C57BLI6NTac mice
Text: (§1) Mice were divided into two groups, a diet-induced obese group and a lean group. For the diet-induced obese group, fifteen week-old C57BL/6NTac mice, maintained prior to and during the study on a diet containing 60% fat on a kilocalorie basis, were further separated into six groups, eight animals per group. Average body weight of these diet-induced obese mice was 38 g at the start of the study. For the lean group, fifteen week-old C57BLI6NTac mice, maintained on a diet containing 4.3% by weight fat prior to and during the study, were further separated into two groups, eight animals per group. Average body weight of these lean mice was 28 g at the start of the study.
(§2) Fumagillin was administered to three of the diet-induced obese mice groups by oral gavage as a solution in 10% DMSO, at doses of 0.1 mg/kg/day, 0.3 mg/kg/day, and 1 mg/kg/day respectively. A fourth diet-induced obese mice group received the 10% DMSO vehicle only by oral gavage. A group of lean mice was administered fumagillin by oral gavage as a solution in 10% DMSO at a dose of 1 mg/kg/day. Treatments were administered daily for 11 days.
A study was undertaken to analyze whether oral administration compared to subcutaneous administration of fumagillin affected weight loss in diet-induced obese mice. Mice were divided into two groups, a diet-induced obese group and a lean group. […]

[2] = test system: leptin; test: Plasma marker leptin in diet-induced obese mice (Example 10); type: in vivo, C57BL/6 mice; details: 1 mg/kg/day oral gavage, end of study vs prior, FIG. 15
Procedure: Mice were divided into four groups, a diet-induced obese group administered fumagillin at 1 mg/kg/day (oral gavage as a solution in 0.25% DMSO), a Pair-fed group, a caloric restriction group, and a diet-induced obese group. For the diet-induced obese groups, C57BL/6 mice were maintained prior to and during the study on a diet containing 42% fat on a kilocalorie basis. Plasma markers were measured prior to and at the end of the study.

[3] = test system: diet-induced obese mice; test: 47-day weight and food intake study in diet-induced obese mice (Example 5); type: in vivo, C57BL/6NTac mice; details: 1 mg/kg/day oral gavage
Procedure: Mice were divided into two groups, a diet-induced obese group and a lean group (control). For the diet-induced obese group, C57BL/6NTac mice maintained prior to and during the study on a diet containing 60% fat on a kilocalorie basis were further divided into two groups, fifteen mice per group. Average body weight of these diet-induced obese mice was 40 g at the start of the study. […] Daily food consumption was also recorded.
Fumagillin was administered to one of the diet-induced obese mice groups by oral gavage as a solution in 10% DMSO, at dose of 1 mg/kg/day, for 47 days. The other diet-induced obese mice group and the lean mice group were not administered anything.

[4] = humans, 30 mg/day to 60 mg/day; Molina et al., Seneca; cited from earlier work
[5] = test system: diet-induced obese mice; test: Very low dose oral and subcutaneous weight loss study in diet-induced obese mice (Examples 3 and 4); type: in vivo, C57BL/6NTac mice
Text: as §1, §2
as §1, with “A study was undertaken to analyze whether oral administration compared to subcutaneous administration of fumagillin affected weight loss in diet-induced obese mice. Mice” for “Mice”
Fumagillin was administered to three of the diet-induced obese groups by oral gavage as a solution in 10% DMSO, at doses of 0.1 mg/kg/day, 0.3 mg/kg/day, and 1 mg/kg/day respectively. A fourth diet-induced obese group received the 10% DMSO vehicle-only by oral gavage. A fifth diet-induced obese group received fumagillin at a 1 mg/kg/day dose by subcutaneous injection of a solution in 10% DMSO. A sixth diet-induced obese group received the 10% DMSO vehicle only by subcutaneous injection. A group of lean mice was administered fumagillin by oral gavage as a solution in 10% DMSO at a dose of 1 mg/kg/day.
Another group of lean mice was administered fumagillin by subcutaneous injection of a solution in 10% DMSO at a dose of 1 mg/kg/day. Treatments were administered daily for 14 days.

[6] = test system: blood cells; test: Complete blood analysis (CBC) after oral fumagillin in lean rats (Example 9); type: in vivo, Sprague-Dawley rats; details: for lymphocyte count / neutrophil count / white blood cell count: 3 mg/kg oral gavage on day 3 and day 9
Procedure: Male lean Sprague-Dawley rats were divided into two groups, ten rats per group. One group of rats received fumagillin by oral gavage as a solution in 10% DMSO, at dose of 3 mg/kg. Administration of fumagillin to this group of rats was performed on day 3 and day 9 of the study. The other group of rats was administered by oral gavage a solution of 10% DMSO/90% water (vehicle-only). Administration of vehicle to this group of rats was performed on day 3 and day 9 of the study. Blood samples were collected daily for complete blood analysis (CBC).

[7] = test system: diet-induced obese mice; test: Percent fat change and lean mass change by NMR in diet-induced obese mice, 28 days (Example 6); type: in vivo, C57BL6J mice
Procedure: Mice were first divided into three groups, a control group, a diet-induced obese group, and a lean group. For the diet-induced obese group, C57BL6J mice maintained prior to and during the study on a diet containing 40% fat on a kilocalorie basis were further divided into two groups. For the lean group, C57BL6J mice were maintained on a diet containing 4% by weight fat prior to and during the study. Each of the groups was subsequently divided as described below.
The lean group was administered 1% DMSO vehicle for 28 days. Percent fat change and percent lean mass change from baseline were determined by NMR after 28 days.

CO[C@@H]1[C@H](OC(=O)/C=C/C=C/C=C/C=C/C(=O)O)CC[C@]2(CO2)[C@H]1[C@@]1(C)O[C@@H]1CC=C(C)C [fumagillin]
weight change ([1]; 1 mg/kg/day oral gavage): no weight change
weight loss ([1]; 1 mg/kg/day subcutaneous): no weight loss
leptin levels [2]: reduced
effect on lean body mass ([3]; 47 days, weight plateaued at weight of lean mice): without substantial reduction of lean body mass
average weight ([3]; day seventeen (from 40 g on day 1)): 32 g
average weight ([3]; maintained through day 47): approximately 32 g
amount of food consumed ([3]; throughout 47 days): 2.2 g/day
blood disorders developed by patients [4]: thrombocytopenia, leukopenia, and neutropenia
weight loss as a percentage of pre-study weight ([5]; 0.1 mg/kg/day oral gavage, end of study (14 days)): 7%
weight loss as a percentage of pre-study weight ([5]; 0.3 mg/kg/day oral gavage, end of study (14 days)): 11%
weight loss as a percentage of pre-study weight ([5]; 1 mg/kg/day oral gavage, end of study (14 days)): 12%
weight loss as a percentage of pre-study weight ([5]; 1 mg/kg/day subcutaneous injection, 14 days, end of study): 7%
non-effective dose ([5]; oral gavage, weight loss, not identified, concluded): below 0.1 mg/kg/day
lymphocyte count ([6]; day 3): approximately 4000 lymphocytes/4
neutrophil count ([6]; day 3): approximately 650 neutrophils/4
white blood cell count ([6]; day 3): approximately 5000 white blood cells/4
lymphocyte count ([6]; day 9): approximately 3900 lymphocytes/4
neutrophil count ([6]; day 9): approximately 1100 neutrophils/4
white blood cell count ([6]; day 9): approximately 5200 white blood cells/4
development of a blood disorder ([6]; 3 mg/kg oral gavage, rats): do not result in development of a blood disorder
variation vs vehicle-only rats in white blood cell, lymphocyte and neutrophil count ([6]; 3 mg/kg oral gavage, statistical analysis): not statistically significant
weight loss ([7]; 0.3 mg/kg/day oral gavage): lost significant amounts of weight
weight loss ([7]; 1.0 mg/kg/day oral gavage): losing a greater amount of weight
loss of lean body mass (NMR) ([7]; 0.3 or 1.0 mg/kg/day oral gavage): without resulting in substantial loss of lean body mass
